Earlier results on one compound are cited in US7223414B1, “Silica-calcium phosphate bioactive composite for improved synthetic graft resorbability and tissue regeneration” (priority 2002, dated 2007).

The subject of the data set is Staphylococcus aureus.

Where a name gives a salt, the structure may show the parent alone.

For the compound `CN[C@H](CC(C)C)C(=O)N[C@H]1C(=O)N[C@@H](CC(N)=O)C(=O)N[C@H]2C(=O)N[C@H]3C(=O)N[C@H](C(=O)N[C@H](C(=O)O)c4cc(O)cc(O)c4-c4cc3ccc4O)[C@H](O)c3ccc(c(Cl)c3)Oc3cc2cc(c3O[C@@H]2O[C@H](CO)[C@@H](O)[C@H](O)[C@H]2O[C@H]2C[C@](C)(N)[C@H](O)[C@H](C)O2)Oc2ccc(cc2Cl)[C@H]1O` [vancomycin hydrochloride, Vancomycin hydrochloride], the breakpoint sensitivity was 5 mg/L, the minimum bactericidal concentrations was 2.34 µg/mL and the minimum inhibitory concentration is 1.18 µg/mL.
